Source: US11535630B2, “Apelin receptor (APJ) agonists and uses thereof” (Research Triangle Institute, priority 2015, dated 2022)

What follows are molecules tested against T1, apelin receptor (APJ) (Homo sapiens, UniProt P35414) (assay: In vitro apelin agonist activity (methods of Giddings et al., Apelin-13 as positive control)). Conditions: in vitro apelin agonist activity, methods of Giddings et al., Apelin-13 as positive control; read-out: EC50 (nM) Ave.
T1 sequence (P35414 1-380): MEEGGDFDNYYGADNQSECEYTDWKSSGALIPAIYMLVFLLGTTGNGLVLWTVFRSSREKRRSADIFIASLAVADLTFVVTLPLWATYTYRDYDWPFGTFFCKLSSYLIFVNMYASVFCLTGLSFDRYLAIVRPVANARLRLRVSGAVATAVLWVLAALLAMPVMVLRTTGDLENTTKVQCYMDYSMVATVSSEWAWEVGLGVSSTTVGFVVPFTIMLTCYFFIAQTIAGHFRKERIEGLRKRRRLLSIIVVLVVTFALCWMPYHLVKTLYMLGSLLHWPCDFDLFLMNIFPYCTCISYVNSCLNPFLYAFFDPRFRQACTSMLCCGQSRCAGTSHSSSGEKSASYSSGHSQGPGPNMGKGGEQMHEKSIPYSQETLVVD
Format: cell-based
Description: Characterization of the Apelin Agonist Activity of the Compounds
1:39-47, the contents of which are hereby incorporated by reference in its entirety. Using the methods described in Giddings et al. and Apelin-13 as a positive control.

Structure (SMILES)	EC50 [nM]
O=C(N[C@@H](CCc1ccc(F)cc1)Cc1nnc(C(F)(F)F)o1)c1cc(-c2ccccc2C(F)(F)F)n(C2CCCC2)n1 [compound 475, 1-cyclopentyl-N-[(2S)-4-(4-fluorophenyl)-1-[5-(trifluoromethyl)-1,3,4-oxadiazol-2-yl]butan-2-yl]-5-[2-(trifluoromethyl)phenyl]-1H-pyrazole-3-carboxamide]	146
COc1cccc(OC)c1-c1cc(C(=O)N[C@H](CCO)CCN2CCCCC2)nn1C1CCCC1 [compound 358]	> 10000
C[C@]1(F)CCCN(CC[C@@H](CC(=O)O)NC(=O)c2cc(-c3ccccc3C(F)(F)F)n(C3CCCC3)n2)C1 [compound 614, (3S)-3-({1-cyclopentyl-5-[2-(trifluoromethyl)phenyl]-1H-pyrazol-3-yl}formamido)-5-[(3S)-3-fluoro-3-methylpiperidin-1-yl]pentanoic acid]	41
COc1cccc(OC)c1-c1cc(C(=O)N[C@@H](CCN2CCCCC2)Cc2nccs2)nn1C1CCCC1 [compound 448, 1-cyclopentyl-5-(2,6-dimethoxyphenyl)-N-[(2S)-4-(piperidin-1-yl)-1-(1,3-thiazol-2-yl)butan-2-yl]-1H-pyrazole-3-carboxamide]	1340
O=C(C[C@H](CCN1CCCCC1)NC(=O)c1cc(-c2ccccc2OC(F)(F)F)n(C2CCCC2)n1)NC1CCC1 [compound 359, (3S)-N-cyclobutyl-3-({1-cyclopentyl-5-[2-(trifluoromethoxy)phenyl]-1H-pyrazol-3-yl]formamido)-5-(piperidin-1-yl)pentanamide]	271
CCN(C(=O)c1cc(-c2ccccc2OC(F)(F)F)n(C2CCCC2)n1)[C@@H](CCN1CCCCC1)CC(=O)NC1CCC1 [compound 344, (3S)-N-cyclobutyl-3-(1-{1-cyclopentyl-5-[2-(trifluoromethoxy)phenyl]-1H-pyrazol-3-yl}-N-ethylformamido)-5-(piperidin-1-yl)pentanamide]	2370
O=C(C[C@H](CCN1CCCCC1)NC(=O)c1cc(-c2ccccn2)n(C2CCCC2)n1)NC1CCC1 [compound 375, (3S)-N-cyclobutyl-3-{[1-cyclopentyl-5-(pyridin-2-yl)-1H-pyrazol-3-yl]formamido}-5-(piperidin-1-yl)pentanamide]	> 10000
COc1cccc(OC)c1-c1cc(C(=O)N[C@H]2CCN(Cc3ccncc3)C(=O)C2)nn1C1CCCC1 [compound 315, 1-cyclopentyl-5-(2,6-dimethoxyphenyl)-N-[(4S)-2-oxo-1-(pyridin-4-ylmethyl)piperidin-4-yl]-1H-pyrazole-3-carboxamide]	> 10000
O=C(O)C[C@H](CCN1CCCC(F)(F)C1)NC(=O)c1cc(-c2ccccc2C(F)(F)F)n(CC2CCC2)n1 [compound 571, (3S)-3-{[1-(cyclobutylmethyl)-5-[2-(trifluoromethyl)phenyl]-1H-pyrazol-3-yl}formamido}-5-(3,3-difluoropiperidin-1-yl)pentanoic acid]	130
C[C@@H](C[C@@H](CC(=O)O)NC(=O)c1cc(-c2ccccc2C(C)(F)F)n(C2CCCC2)n1)N1CCC(F)(F)C1 [compound 600, (3S,5S)-3-({1-cyclopentyl-5-[2-(1,1-difluoroethyl)phenyl]-1H-pyrazol-3-yl}formamido)-5-(3,3-difluoropyrrolidin-1-yl)hexanoic acid]	67
CC(F)(F)c1ccccc1-c1cc(C(=O)N[C@@H](CCN2CCCC(F)(F)C2)CC(=O)Nc2nccs2)nn1C1CCCC1 [compound 428, (3S)-3-({1-cyclopentyl-5-[2-(1,1-difluoroethyl)phenyl]-1H-pyrazol-3-yl}formamido)-5-(3,3-difluoropiperidin-1-yl)-N-(1,3-thiazol-2-yl)pentanamide]	7.5
O=C(N[C@@H](CCN1CCCC(F)(F)C1)Cc1nnc(C(F)(F)F)[nH]1)c1cc(-c2ccccc2Cl)n(C2CCCC2)n1 [compound 459]	243
CCOc1cc(F)c(-c2cc(C(=O)N[C@@H](CCN3CCCCC3)CC(=O)NC3CCC3)nn2C2CCCC2)c(F)c1 [compound 355, (3S)-N-cyclobutyl-3-{[1-cyclopentyl-5-(4-ethoxy-2,6-difluorophenyl)-1H-pyrazol-3-yl]formamido}-5-(piperidin-1-yl)pentanamide]	5080
O=C(O)C[C@H](CCN1C[C@@H](F)[C@H](F)C1)NC(=O)c1cc(-c2ccccc2C(F)(F)F)n(C2CCCC2)n1 [compound 631, (3S)-3-({1-cyclopentyl-5-[2-(trifluoromethyl)phenyl]-1H-pyrazol-3-yl}formamido)-5-[(3R,4R)-3,4-difluoropyrrolidin-1-yl]pentanoic acid]	75
COc1cccc(OC)c1-c1cc(C(=O)N[C@@H](CCc2ccc(F)cc2)CC(=O)NC2CCC2)nn1C1CCCC1 [compound 416, (3S)-N-cyclobutyl-3-{[1-cyclopentyl-5-(2,6-dimethoxyphenyl)-1H-pyrazol-3-yl]formamido}-5-(4-fluorophenyl)pentanamide]	606
Cc1noc(C)c1-c1cc(C(=O)N[C@@H](CCN2CCCCC2)CC(=O)NC2CCC2)nn1C1CCCC1 [compound 369, (3S)-N-cyclobu tyl-3-{[1-cyclopentyl-5-(dimethyl-1,2-oxazol-4-yl)-1H-pyrazol-3-yl]formamido}-5-(piperidin-1-yl)pentanamide]	> 10000
O=C(O)C[C@H](CCN1CCC(C(F)(F)F)C1)NC(=O)c1cc(-c2ccccc2C(F)(F)F)n(C2CCCC2)n1 (stereo partly drawn) [compound 578, (3S)-3-({1-cyclopentyl-5-[2-(trifluoromethyl)phenyl]-1H-pyrazol-3-yl}formamido)-5-[3-(trifluoromethyl)pyrrolidin-1-yl]pentanoic acid]	78
O=C(C[C@H](CCN1CCCCC1)NC(=O)c1cc(-c2ccccc2C(F)(F)F)n(C2CCCC2)n1)NC1CC(F)(F)C1 [compound 520, (3S)-3-({1-cyclopentyl-5-[2-(trifluoromethyl)phenyl]-1H-pyrazol-3-yl}formamido)-N-(3,3-difluorocyclobutyl)-5-(piperidin-1-yl)pentanamide]	45
CC(C(=O)O)[C@H](CCN1CC2C(C1)C2(F)F)NC(=O)c1cc(-c2ccccc2C(F)(F)F)n(C2CCCC2)n1 (stereo partly drawn) [compound 635, (2R,3S)-3-({1-cyclopentyl-5-[2-(trifluoromethyl)phenyl]-1H-pyrazol-3-yl}formamido)-5-{6,6-difluoro-3-azabicyclo[13.1.0]hexan-3-yl}-2-methylpentanoic acid]	13
COc1cccc(OC)c1-c1cc(C(=O)N[C@@H](CCN2CC3(CCC3)C2)CC(=O)NC2CCC2)nn1C1CCCC1 [compound 349]	197
COc1cccc(OC)c1-c1cc(C(=O)N[C@@H](CCN2CCCCC2)CC(=O)N(C)C2CCC2)nn1C1CCCC1 [compound 331, (3S)-N-cyclobutyl-3-{[1-cyclopentyl-5-(2,6-dimethoxyphenyl)-1H-pyrazol-3-yl]formamido}-N-methyl-5-(piperidin-1-yl)pentanamide]	353
O=C(O)C[C@H](CCN1CC2CCC(C1)C2(F)F)NC(=O)c1cc(-c2ccccc2C(F)(F)F)n(C2CCCC2)n1 [compound 606, (3S)-3-({1-cyclopentyl-5-[2-(trifluoromethyl)phenyl]-1H-pyrazol-3-yl}formamido)-5-{8,8-difluoro-3-azabicyclo[3.2.1]octan-3-yl}pentanoic acid]	310
O=C(O)C[C@H](CCN1C(=O)CCCC1=O)NC(=O)c1cc(-c2ccccc2C(F)(F)F)n(C2CCCC2)n1 [compound 604, (3S)-3-({1-cyclopentyl-5-[2-(trifluoromethyl)phenyl]-1H-pyrazol-3-yl}formamido)-5-(2,6-dioxopiperidin-1-yl)pentanoic acid]	55
O=C(C[C@H](CCN1CCCCC1)NC(=O)c1cc(-c2ccsc2C(F)(F)F)n(C2CCCC2)n1)NC1CCC1 [compound 434]	641
COc1cccc(OC)c1-c1cc(C(=O)N[C@@H](CCN2CCN(C)CC2)CC(=O)OC(C)(C)C)nn1C1CCCC1 [compound 304, tert-butyl (3S)-3-{[1-cyclopentyl-5-(2,6-dimethoxyphenyl)-1H-pyrazol-3-yl]formamido}-5-(4-methylpiperazin-1-yl)pentanoate]	> 10000
COc1cccc(OC)c1-c1cc(C(=O)N[C@@H](CC2CCC2)C(=O)O)nn1C1CCCC1 [compound 386, (2S)-3-cyclobutyl-2-{[1-cyclopentyl-5-(2,6-dimethoxyphenyl)-1H-pyrazol-3-yl]formamido}propanoic acid]	6170
COc1cccc(OC)c1-c1cc(C(=O)N[C@@H](CCc2ccccc2)C(=O)NCc2nccs2)nn1C1CCCC1 [compound 388, (2S)-2-{[1-cyclopentyl-5-(2,6-dimethoxyphenyl)-1H-pyrazol-3-yl]formamido}-4-phenyl-N-(1,3-thiazol-2-ylmethyl)butanamide]	399
COc1cccc(OC)c1-c1cc(C(=O)N[C@@H](Cc2ccccc2)C(=O)NC2CCC2)nn1CC(C)C [compound 302, (2S)-N-cyclobutyl-2-{[5-(2,6-dimethoxyphenyl)-1-(2-methylpropyl)-1H-pyrazol-3-yl]formamido}-3-phenylpropanamide]	> 10000
N#CC1CCN(CC[C@@H](CC(=O)NC2CCC2)NC(=O)c2cc(-c3ccccc3C(F)(F)F)n(C3CCCC3)n2)C1 (stereo partly drawn) [compound 481, (3S)-5-(3-cyanopyrrolidin-1-yl)-N-cyclobutyl-3-({1-cyclopentyl-5-[2(trifluoromethyl)phenyl]-1H-pyrazol-3-yl}formamido)pentanamide]	1.96
